Reference: patent publication US12600925B2, “Laundry sanitizing and softening compositions” (Reckitt Benckiser LLC, priority 2023, dated 2026)

Test system: Staphylococcus epidermidis
Assay: Minimum inhibitory concentration, BKC / polymer synergy, 96-well microtiter
Assay type: cell-based
Settings: second test (lower line of each polymer); 24 h, 37° C.; 100% active
Experimental: Take well-defined and typical colonies of Staphylococcus epidermidis from a recent plate of tryptic soy agar (TSA), dissolve and vortex them in a tube containing 30 mL of tryptic soy broth (TSB) and incubate for 17+/−1h at 37° C.+/−1° C. Quantify by plate count in TSA (incubated for 48h+/−1h at 37° C.+/−1° C.). Use the broth culture suspension within seven (7) days after the incubation period. Vortex and take 0.2 mL from the broth culture and dilute in appropriate volume of 0.85% NaCl to normalize the strain at 3-5×10^5 CFU/mL Using a micropipette, add 100 μL of TSB in a 96-well microtiter plate format. […] (both samples are the same) Using a micropipette take 100 μL of the sample from column 2 and dilute it in column 3 performing a 1:1 dilution with the diluent already present in the wells, proceeding with a serial dilution up to column 9. Discard the remaining 100 μL. […] Dispense 100 μL of inoculum using a micropipette into each well in columns 2 to 10. Columns 1 and 11 are the sample sterility test and negative test control columns, respectively. No growth should be observed in these columns. Column 10 is the positive test control and growth should be observed. […] Incubate the microwell plate for 24h+/−1h at 37° C.+/−1° C. The minimum inhibitory concentration (MIC) is determined by visually checking the wells for growth. […]

## C12-16 alkyldimethylbenzylammonium chloride [BKC]
  BKC MIC in ppm alone: 0.3-0.8 ppm
